For series [1], the system named is L. braziliensis-infected macrophages. Description: Treatment of infected macrophages. In kind it is cell-based, Leishmania braziliensis. The settings on record: 48 h at 37 °C; for Number of Amastigotes per Cell after treatment: untreated 10.3; for Percentage of Infected Macrophages after Treatment: untreated 92.8. The procedure:
Murine macrophages (5 × 10^5 cells) were plated on round glass coverslips in 24-well plates in RPMI 1640 medium with added 20% FBS and 20 mmol/L L-glutamine at pH 7.4 and incubated for 24 h at 37 °C in 5% CO2. Promastigotes were added to the wells (at a ratio of 10 parasites per macrophage), and cultures were incubated for 48 h at 37 °C in a 5% CO2 environment. Free parasites were removed by extensive washing with RPMI 1640 medium, and the infected macrophages were treated with Compound 28 or AmpB (0, 1.0, 2.5 and 5.0 µg/mL in both cases) for 48 h at 37 °C in 5% CO2.
(§1) To evaluate the inhibition of infection, promastigotes (5 × 10^6 cells) were first incubated with Compound 28 or AmpB (0, 1.0, 2.5 and 5.0 µg/mL in both cases) for 4 h at 24 °C; these were then used to infect murine macrophages (at a ratio of 10 parasites per macrophage) and incubated for 24 h at 37 °C in 5% CO2. Then, cells were fixed with 4% paraformaldehyde, washed, and stained with Giemsa. The percentage of infected macrophages and the number of recovered amastigotes were determined by counting 200 cells, in triplicate, using an optical microscope.

Series [2] has as its system L. braziliensis promastigotes infecting murine macrophages. The series can be described thus: Inhibition of infection (parasites pre-incubated with compound, then used to infect macrophages). Conditions: for Number of Amastigotes per Cell using pre-incubated parasites: untreated 8.9; for Percentage of Infected Macrophages Using Pre-Incubated Parasites: untreated 90.5. Format: cell-based, Leishmania braziliensis. The procedure: as §1

Series [3] in a line: Cytotoxicity in mammalian cells (MTT). Conditions: mouse; murine macrophages, 48 h at 37 °C in 5% CO2, MTT, mean ± standard deviation. In kind it is cell-based. The method, then: (§2) The in vitro antileishmanial activity was evaluated by incubating the promastigotes or axenic amastigotes (1 × 10^6 cells/well) with the 24 synthetic derivatives (Compounds 5–28; 0 to 600 µg/mL) in 96-well culture plates (Nunc, Nunclon, Roskilde, Denmark) for 48 h at 24 °C. Due to the difficulty in obtaining a high concentration of murine macrophages, the cytotoxicity experiment was evaluated by incubating such cells (5 × 10^5 per mL) with Compound 28 (0 to 600 µg/mL), which presented the best antileishmanial activity, for 48 h at 37 °C in a 5% CO2 environment. AmpB (0 to 10 µg/mL; Sigma-Aldrich, St. Louis, MO, USA) was used as a positive control in both experiments. The cell viability was assessed using the 3-(4.5-dimethylthiazol-2-yl)-2.5-diphenyl tetrazolium bromide (MTT, Sigma-Aldrich, St. Louis, MO, USA) method. The optical density (OD) values were read using a microplate spectrophotometer (Molecular Devices, Spectra Max Plus, San Jose, CA, USA) at 570 nm. Results were entered into Microsoft Excel (version 10.0) spreadsheets, and the 50% Leishmania and macrophage inhibitory concentrations (IC50 and CC50, respectively) were calculated by applying a sigmoidal regression of the dose–response curve. The SI was calculated by dividing the CC50 with the respective IC50 values.

Series [4] concerns L. braziliensis promastigotes. The series can be described thus: Membrane permeability evaluation (propidium iodide). The settings on record: one IC50 value, 48 h at 24 °C. In kind it is cell-based, Leishmania braziliensis. The method, then: L. braziliensis promastigotes (1 × 10^7 cells/mL) were incubated with Compound 28 (at a concentration corresponding to one IC50 value) for 48 h at 24 °C. After washing with PBS, parasites (3 × 10^6 cells/well) were incubated with 1.0 µg/mL PI (Sigma-Aldrich, St. Louis, MO, USA) in the dark for 15 min. The samples were analyzed using a fluorometer microplate reader (FLx800, BioTek Instruments, Winooski, VT, USA), with excitation and emission wavelengths of […], respectively. Parasites that were killed by heating to 65 °C for 10 min were used as controls for the membrane permeabilization. Parasites that were untreated or treated with Compound 28 and not labeled with the fluorescent probe were used as the sample blank.
Figure 5 Effect of Compound 28 on parasite membrane permeability. Parasite promastigotes were either left untreated or treated with Compound 28 (at a concentration corresponding to the IC50 value) for 48 h. The PI dye fluorescence was measured fluorometrically at excitation and emission wavelengths of 540 and 600 nm, respectively. Parasites heated at 65 °C for 10 min were used as a positive control. The data is presented as the fold increase in PI fluorescence relative to the untreated control. (***), signifying p < 0.001, indicates a statistically significant difference compared with the non-treated control.

The test system of series [5] is Leishmania braziliensis axenic amastigotes. Description: In vitro antileishmanial activity against axenic amastigotes (MTT). In kind it is cell-based. The method, then:
To obtain the axenic amastigotes, 1 × 10^9 stationary promastigotes were washed three times in sterile phosphate-buffered saline (PBS) and incubated in 5 mL FBS for 48 h at 37 °C. Parasites were washed with cold PBS, and their morphology was evaluated with an optical microscope after Giemsa staining as previously described.
as §2

Where [6] appears, read: parasites pre-incubated with 1.0 µg/mL at 24 °C.
The mark [7] stands for this setting: parasites pre-incubated with 2.5 µg/mL at 24 °C.
Setting [8] is: parasites pre-incubated with 5.0 µg/mL at 24 °C.

≈ marks a conversion by molar mass, not a printed value.

In turn, `CCN(CC)c1ccc2cc(-n3cc(CNC(=O)/C=C/c4ccc(OC)c(OC)c4)nn3)c(=O)oc2c1` [Compound 28, N-((1-(7-(diethylamino)-2-oxo-2H-chromen-3-yl)-1H-1,2,3-triazol-4-yl)methyl) (3,4-dimethoxy) cinnamide] registered a melting point of 197 to 198.4 °C. In series [1] (1.0 µg/mL), the “Number of Amastigotes per Cell after treatment” value is recorded as 6.7 and the “Percentage of Infected Macrophages after Treatment” value (“Percentage … after Treatment” for short) worked out at 79.5%. Besides, in series [1] (2.5 µg/mL), the “Number of Amastigotes per Cell after treatment” value was 4.0 and the “Percentage … after Treatment” value stood at 70.3%. Also, in series [1] (5.0 µg/mL), the “Number of Amastigotes per Cell after treatment” value stood at 2.9 and the “Percentage … after Treatment” value came to 60.2%. Moreover, in series [2] (setting [6]), the “Number of Amastigotes per Cell using pre-incubated parasites” value is recorded as 5.8 and the “Percentage of Infected Macrophages Using Pre-Incubated Parasites” value was 84.5%. Besides, in series [2] (setting [7]), the “Number of Amastigotes per Cell using pre-incubated parasites” value is given as 4.9 and the “Percentage of Infected Macrophages Using Pre-Incubated Parasites” value stood at 80.5%. In series [2] (setting [8]), the “Number of Amastigotes per Cell using pre-incubated parasites” value was 3.6 and the “Percentage of Infected Macrophages Using Pre-Incubated Parasites” value is 71.5%. The same compound came in with a cytotoxic concentration (CC50) at 48 h in series [3] of over 600 µg/mL. In addition, in series [4], the “Fold increase in PI-fluorescence compared with untreated parasites” value stood at 2.3 fold. In series [5] (48 h at 24 °C, MTT, mean ± standard deviation), the “IC50 Axenic Amastigotes” value is reported as 87.8 ± 9.7 µg/mL (≈ 174 µM). For the same compound, the “Selectivity index (SI), ratio CC50/IC50, axenic amastigotes” value in series [5] (CC50 murine macrophages / IC50 axenic amastigotes) is on record as 13.3. In series [5] (Leishmania braziliensis, 48 h, 48 h at 24 °C, MTT, mean ± standard deviation), this compound came in with an IC50 of 88 ± 9.7 µg/mL (≈ 175 µM).
